The target in one data set is cathepsin B (Homo sapiens, UniProt P07858). Description: Kinetic assay for cathepsin B. Type of data set: biochemical. Particulars: substrate, pH 5.5, 25° C.
For the next data set, the target named is cathepsin S (Homo sapiens, UniProt P25774). Description: Kinetic assay for cathepsin S. It counts as biochemical. As to the method:
(§1) For assays of cathepsin B, L, and S, cruzain inhibitors were evaluated in reaction mixtures containing a buffer of sodium acetate (pH 5.5), 1 mM CHAPS, 1 mM Na2EDTA, and 5 mM DTT at 25° C. The substrate Cbz-Phe-Arg-AMC was dissolved in 100% DMSO, as were all inhibitors, and aliquots of both substrates and inhibitors were added to 0.25 mL reaction mixtures to final concentrations of 10% DMSO (v/v). […] Cruzain inhibitors were added at seven concentrations and one fixed concentration of Cbz-Phe-Arg-AMC, and time courses of AMC formation were analyzed as with cruzain.

Data set [1] has as its target T1, cathepsin L (Homo sapiens, UniProt P07711). Description: Kinetic assay for cathepsin L. It counts as biochemical. The method, then: as §1
In another data set the target is cruzain (Trypanosoma cruzi, UniProt P25779). Description: Cruzain inactivation. It counts as biochemical.
Data set [2] deals with Vero E6 cells. Description: Bio-orthogonal labeling of protein targets in Vero E6 cells, in-gel fluorescence. It counts as cell-based, African green monkey. Particulars: for labelling of the 24-25-kDa protein by K11777-alkyne after pre-treatment: pre-treatment 1 μM K777, 1 μM K777 alkyne, SARS-CoV-2 infected and uninfected cells. As to the method:
4N-propargyl-K11777 was added at concentrations of 1-10 µM to Vero E6 (African green monkey kidney cells), with and without infection by SARS CoV-2 viral particles at an multiplicity of infection of 0.1. […] Cells growth continued for 4 days, followed by harvest, and ˜ 20 million cells were suspended in 1 mL of lysis buffer (200 mM Tris, 4% CHAPS, 1M NaCl, 8 M Urea, pH=8) and protease inhibitor cocktail (Sigma Aldrich) at a ratio of 50:1 (v/v). Cells were lysed by sonication (ThermoFisher Scientific), with the sample on ice, with a ⅛-inch probe at 20% amplitude for 3-seconds, three times with a minute delay between pulses. The cell debris was pelleted (10,000×g for 10 minutes) followed by removal of the supernatant and determination of protein concentration by BCA assay (ThermoFisher Scientific). Labeling of the K11777-alkyne-treated cells was performed in a stepwise fashion whereby 100 mM TBTA in 1:4 DMSO: n-butanol (v/v) was added to 1 mM CuSO4 in water, followed by the addition of 20 mM Cy7-azide (Click Chemistry Tools) in DMSO, 24 μg cell lysate, and finally 2.5 mM sodium ascorbate in water. This reaction was incubated at room temperature for 1-3 hours and quenched by the addition ice-cold methanol (200 μL), chloroform (75 μL), and water (150 μL) followed by vortexing and centrifugation at 15,000 RPM at 4° C. for 15 minutes. […] Then, 4× loading dye (240 mM Tris-HCl, 8% SDS (w/v), 0.004% bromophenol blue (to avoid fluorescence from the dye), 5 mM DTT, and MilliQ water was added to a total volume of 24 μL. Samples were heated to 95° C. for 5 minutes followed by a brief centrifugation at 5,000 RPM for 1 min. The protein-standards ladder (Bio-Rad, Precision Plus Protein™ Dual Color Standards) was diluted 10,000 fold in 4% SDS buffer, loading dye, and water and loading dye 4× loading dye and water to avoid strong fluorescence from the ladder during imaging. Samples were analyzed on a 12% Bis-Tris Nu-PAGE gel (Invitrogen). […] Densitometry of in gel fluorescence was conducted using ImageJ. The gels were also analyzed by Coomassie Brilliant Blue R-250 staining (Bio-Rad).

Another data set concerns host cells. Description: Toxicity in host cells.
Data set [3] has as its target T1, cathepsin L. Description: Proteolysis of SARS CoV-2 Spike protein by cathepsin L. Type of data set: biochemical. The following applies: pH 5.5.
A further data set has as its system pseudovirus SARS CoV-1. The following applies: cited from earlier work.
For data set [4], the system named is Vero E6 cells. Description: Azide enrichment and proteomic analysis of K11777-alkyne treated Vero E6 cells. It counts as cell-based, African green monkey. As to the method:
Cell lysates of Vero E6 cells were prepared as described above. Enrichment of alkyne-modified proteins was conducted using the Click-&-Go Protein Enrichment Kit (Click Chemistry Tools) and the protocols thereof. Proteolysis of the resin-bound, enriched proteins, which had been reduced with DTT and alkylated with iodoacetamide, was conducted by addition of 1 μg of Trypsin Gold (Promega) at 37° C. overnight with gentle agitation. The digested peptides were then eluted from the column and subjected to desalting using Pierce™ C18 Tips, 100 μL bed (Thermo Fisher Scientific). The desalted peptides were concentrated to dryness via speed vacuum centrifugation, and suspended in 25 mM ammonium bicarbonate. […]
Data were processed using MaxQuant 1.6.14. Label-free quantification was enabled at the default parameters. […] MaxQuant result files were analyzed using Perseus 1.6.14. Reverse hits, potential contaminant hits, hits only identified by site and hits for which only one peptide was detected were removed. Only proteins which were not detected in the control were considered. […] Finally, proteins which were detected in at least two test samples were clustered based on highest to lowest intensity in the 5 μM and 10 μM treated columns at default parameters (column clustering was disabled) and plotted as a heat map.

The source of these data is patent US20230301988A1 (priority 2020, published 2023).

Molecules are shown by their SMILES. Residues, ends and D or L forms follow the SMILES beside them.

T1 sequence (P07711 114-333): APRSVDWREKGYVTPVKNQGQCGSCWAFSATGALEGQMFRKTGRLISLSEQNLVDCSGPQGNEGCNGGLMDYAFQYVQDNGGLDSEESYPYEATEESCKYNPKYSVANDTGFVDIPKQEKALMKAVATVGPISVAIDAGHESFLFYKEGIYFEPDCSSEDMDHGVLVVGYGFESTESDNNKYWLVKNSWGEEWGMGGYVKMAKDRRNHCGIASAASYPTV
cathepsin S, sequence (P25774 115-331): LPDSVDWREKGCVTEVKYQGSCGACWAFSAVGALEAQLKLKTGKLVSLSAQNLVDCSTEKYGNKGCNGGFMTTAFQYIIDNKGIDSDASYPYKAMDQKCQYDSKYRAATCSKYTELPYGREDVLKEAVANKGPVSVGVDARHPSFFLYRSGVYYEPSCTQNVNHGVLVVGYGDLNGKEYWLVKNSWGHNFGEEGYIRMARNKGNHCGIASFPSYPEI
cruzain, sequence (P25779 123-337): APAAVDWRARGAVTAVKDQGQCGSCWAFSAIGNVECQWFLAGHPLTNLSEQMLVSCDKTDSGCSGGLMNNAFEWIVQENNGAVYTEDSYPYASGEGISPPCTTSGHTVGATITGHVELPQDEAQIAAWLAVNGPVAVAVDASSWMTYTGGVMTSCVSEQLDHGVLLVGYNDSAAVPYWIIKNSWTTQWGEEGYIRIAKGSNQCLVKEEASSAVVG

For `Cc1cc(=O)oc2cc(NC(=O)[C@H](CCCN=C(N)N)NC(=O)[C@H](Cc3ccccc3)NC(=O)OCc3ccccc3)ccc12` [Cbz-Phe-Arg-AMC, reference compound] (HELM PEPTIDE1{[O=C(OCc1ccccc1)[*:2]].F.R.[Cc1cc(=O)oc2cc(N[*:1])ccc12]}$$$$V2.0), the Michaelis constant turned out to be 150 µM on cathepsin B; 60 µM at cathepsin S (substrate, pH 5.5, 25° C.); 2.9 µM at cathepsin L [1] (substrate, pH 5.5, 25° C.).
For the compound `CN1CCN(C(=O)N[C@@H](Cc2ccccc2)C(=O)N[C@H](/C=C/S(=O)(=O)c2ccccc2)CCc2ccccc2)CC1` [K11777, 4-methyl-N-((S)-1-oxo-3-phenyl-1-(((S,E)-5-phenyl-1-(phenylsulfonyl)pent-1-en-3-yl)amino)propan-2-yl)piperazine-1-carboxamide], the inactivation of cruzain entry at cruzain is reported as “exceptionally potent, covalent inactivator”. The “labelling of the 24-25-kDa protein by K11777-alkyne after pre-treatment” value in the data set with Vero E6 cells [2] was “prevented labelling”; in the data set with Vero E6 cells [2] (listed as K777), “blocked”. Further, the “inactivation of cathepsin S” value on cathepsin S was “exceptionally potent, covalent inactivator”. For the same compound, the “toxicity in host cells” value with host cells is reported as “No toxicity”. At cathepsin L [1], the “inactivation of cathepsin L” value is given as “exceptionally potent, covalent inactivator”. For the same compound, the “cathepsin L-catalyzed proteolysis of SARS CoV-2 Spike protein” value at cathepsin L [3] is “blocked”; at cathepsin L [3] (listed as K777), “inhibited”. Moreover, the “infection of Vero, A549 and other mammalian cells by pseudovirus SARS CoV-1” value in the data set on pseudovirus SARS CoV-1 is “exceptionally potent inhibitor”.
For `C#CCN1CCN(C(=O)N[C@@H](Cc2ccccc2)C(=O)N[C@H](/C=C/S(=O)(=O)c2ccccc2)CCc2ccccc2)CC1` [N4-Propargyl-K11777, N-((S)-1-oxo-3-phenyl-1-(((S,E)-5-phenyl-1-(phenylsulfonyl)pent-1-en-3-yl)amino)propan-2-yl)-4-(prop-2-yn-1-yl)piperazine-1-carboxamide], in the data set with Vero E6 cells [2] (infected and un-infected with CoV-2, Cy7 azide), the “proteins labeled in Vero E6 cells” value was “labels only cellular proteins of an apparent molecular weight of 24-25 kDa”. For the same compound, the “most enriched labeled proteins (bead capture, mass spectrometry)” value is “cathepsins B and L are strongly enriched” in the data set on Vero E6 cells [4] (listed as K777 alkyne); “cathepsins L and B” in the data set on Vero E6 cells [4] (listed as N4-propargyl analogue of K11777).
